Patent US7435252B2, “Control of microorganisms in the sino-nasal tract” (priority 2003, dated 2008)
“Also recorded” adds a separate entry of the source.

Columns and labels:
Staph aureus = settings: gram positive (Staph aureus); cited from earlier work
[1] = test system: Porphyromonas Gingivalis and Prevotella Intermedia; assay: Lethal photosensitization of oral pathogens in vitro, colony count after methylene blue stain and red-filtered halogen light; format: cell-based; settings: methylene blue 0.001% or 0.025%, without halogen light
E. Coli = settings: gram negative (E. Coli); cited from earlier work
[2] = test system: Porphyromonas Gingivalis and Prevotella Intermedia; assay: Lethal photosensitization of oral pathogens in vitro, colony count after methylene blue stain and red-filtered halogen light; format: cell-based
Experimental: Suitable stain dosages for providing lethal sensitization of oral pathogens are determined in vitro by the following procedure. An objective is to determine the minimum duration of light exposure and minimum agent dilution required to achieve at least a 50% reduction in bacteria counts. Experimental tests are performed on two common pathogens using a continuously working, high intensity, red filtered halogen lamp. Red light from the filtered halogen lamp is transmitted through a flexible light guide to radiate downwardly onto petri dishes containing samples of live bacteria of species Porphyromonas Gingivalis and Prevotella Intermedia using the protocols described below.
(§1) Bacteria. Prevotella Intermedia is isolated from patient sample material, identified in the laboratory using standard diagnostic test systems (Remel Inc., Lenexa, Kans., USA) and is maintained by twice-weekly subculture in thioglycollate medium (Becton Dickinson and Co, Sparks, Md., USA). P. gingivalis ATCC 33277 obtained from Remel Inc., is maintained by a twice-weekly subculture on CDC anaerobe blood agar (Becton Dickinson and Co, USA) and in thioglycollate medium (Becton Dickinson and Co, USA).
(§2) Light Source. The source for light energy is a continuously working, high intensity halogen lamp having a built-in 250-Watt quartz halogen light source, model 1-250 supplied by Medithon, New York, N.Y., USA. Such lights are customarily employed for ear, nose or throat procedures. The light is transmitted through a flexible light guide and filtered to maintain maximum energy output at wavelengths in the vicinity of about 650 nm using a broadband red filter (Edmund Optics Inc., Barrington, N.J., USA). The light output power density measured at 3 cm distance from the end of the light guide with filter is about 50 milliwatts/cm2.
Photosensitizer. […] Serial dilutions with water of initial solution with respective concentrations of 0.1%, 0.075%, 0.05%, 0.025% and 0.01% are prepared from the initial solution using sterile 10-ml bottles of normal saline and sterile syringes.
Lethal photosensitization of P. Intermedia. Petri dishes containing CDC anaerobe blood agar (Becton Dickinson and Co, USA) are inoculated with 0.5 ml of broth containing 5×10^5 CFU/ml and left closed at room temperature for about 10 minutes to let the broth penetrate the agar media. […] Only plates with concentrations of 0.01%, and 0.025% are used in the experiment with 20 min light exposure. Four plates are used for each experiment. […] The controls are covered to protect them from ambient light. […] A total of 108 subcultures is used for the experiment. Plates are incubated in anaerobic conditions in the jars using anaerobic pack kits (BBL GasPak Plus, Becton Dickinson and Co, Sparks, Md., USA) at 37° C. for 24 hours. Samples of the resulting culture growth are taken from each plate with sterile […] standard loop, dispensed in 1 ml of sterile NS and placed at the same media. Cultures are incubated at anaerobic conditions at 37° C. for another 24 hours, and after that the resulting colony count is performed on each plate.
Lethal photosensitization of P. Gingivalis. Serial dilutions of the P. gingivalis culture are prepared from the initial culture preserved on plates using 1:L sterile standard loop (Becton Dickinson and Co, USA) and sterile NS. AVitek calorimeter (Hach Company, Loveland, Colo., USA) is used to achieve a final concentration of about 5×10^3 CFU/ml from an initial 0.5 standard McFarland suspension of 10^8 CFU/ml. Plates containing CDC anaerobic blood agar (Becton Dickinson and Co, USA) are inoculated with the resulting suspension using sterile 10:L standard loops (Becton Dickinson and Co, USA). […] Plates are also incubated at 37° C. in the tightly closed jars supplied with anaerobic pack kits (BBL GasPak Plus, Becton Dickinson and Co, USA) for 24 hours, and the resulting colony count is performed on each plate.
Statistical analyses can be carried out using single-factor analysis of variance.

Candida albicans = settings: MB 450 and 500 microgram/mL, diode laser light 664 nm, 275 J/cm fiber length, 400 mW, 687.5 seconds, immunosuppressed murine model; cited from earlier work
P. gingivalis ATCC 33277 = assay: Lethal photosensitization of P. Gingivalis, colony count; format: cell-based, Porphyromonas Gingivalis
From the text: as §1, §2
Photosensitizer. […] Serial dilutions with water of initial solution with respective concentrations of 0.1%, 0.075%, 0.05%, 0.025% and 0.01% are prepared from the initial solution using sterile 10-ml bottles of normal saline and sterile syringes. […]

Compound | phototoxicity (Staph aureus) | killing bacteria [1] | phototoxicity (E. Coli) | Reduction of bacteria ([2]; 0.05% methylene blue alone, without exposure to light) | difference between exposure for 10 and 20 minutes ([2]; either species, any concentration of methylene blue) | reduction in bacteria counts ([2]; light exposure 1 min, methylene blue 0.05% and higher) | reduction in bacteria counts ([2]; light exposure 5 min, methylene blue 0.025%) | bactericidal effect ([2]; methylene blue 0.01% or higher with red-filtered high-intensity light, exposure less than 10 minutes, accumulated energy 30 J/cm^2) | killing with duration of light exposure ([2]; methylene blue 0.025%, time intervals 5 and 10 min, both cultures) | killing with duration of light exposure ([2]; methylene blue 0.05%, time intervals 1 min, 5 min and 10 min, both cultures) | bacterial count reduction ([2]; methylene blue 0.075% and 0.1%, light exposure 1 min, both cultures) | bactericidal effect ([2]; methylene blue 0.075% and 0.1%, without light exposure) | eradication of Candida albicans (Candida albicans) | bacterial killing (P. gingivalis ATCC 33277; methylene blue 0.01%, without light exposure, P. gingivalis culture) | bactericidal effect (P. gingivalis ATCC 33277; methylene blue 0.1%, P. gingivalis)
CN(C)c1ccc2nc3ccc(=[N+](C)C)cc-3sc2c1 [methylene blue] | bacterial cell death | nor concentrations of methylene blue of 0.001% or 0.025%, without halogen light, appeared to be effective in killing bacteria | bacterial cell death | insignificant | No statistically significant difference | Significant reduction in bacteria counts | Significant reduction in bacteria counts | bactericidal effect | statistically significant increased killing with duration | statistically significant increased killing with duration | statistically significant bacterial count reduction | significant bactericidal effect; also recorded: significantly bactericidal | totally eradicate | statistically significant bacterial killing | bactericidal effect
Cc1cc2nc3ccc(N(C)C)cc3[s+]c2cc1N.[Cl-] [toluidine blue 0] | bacterial cell death | – | bacterial cell death | – | – | – | – | – | – | – | – | – | – | – | –
